# The supplement of paper PMC6045584
# ± gives the standard deviation of the averaged measurements.
# What was measured:
# EVEROLIMUS = compound: CO[C@H]1C[C@@H]2CC[C@@H](C)[C@@](O)(O2)C(=O)C(=O)N2CCCC[C@H]2C(=O)O[C@H]([C@H](C)C[C@@H]2CC[C@@H](OCCO)[C@H](OC)C2)CC(=O)[C@H](C)/C=C(\C)[C@@H](O)[C@@H](OC)C(=O)[C@H](C)C[C@H](C)/C=C/C=C/C=C/1C [EVEROLIMUS]; assay: surviving fraction relative to DMSO-only wells; higher = less growth inhibition; details: exposure time: 5 days
# In short: (§1)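 Lines were retained only if, across three screens, replicate Pearson r was >0.7 and median Z' was >0.3. Viability was measured as CellTiter-Glo luminescence and reported as surviving fraction relative to the median of DMSO-only wells. Readings followed 10 minutes at room temperature, after log-phase tumour cells seeded at 250–500 per well in 384-well plates had been exposed, from 24 hours after seeding, continuously for five days to inhibitors at 0.5, 1, 5, 10, 50, 100, 500 and 1000 nM.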
# MK2206 = compound: NC1(c2ccc(-c3nc4ccn5c(=O)[nH]nc5c4cc3-c3ccccc3)cc2)CCC1 [MK2206]; assay: as above; details: exposure time: 5 days
# In short: as §1
Test System,surviving fraction (EVEROLIMUS; 0.5 nM),surviving fraction (EVEROLIMUS; 1 nM),surviving fraction (EVEROLIMUS; 5 nM),surviving fraction (EVEROLIMUS; 10 nM),surviving fraction (EVEROLIMUS; 50 nM),surviving fraction (EVEROLIMUS; 100 nM),surviving fraction (EVEROLIMUS; 500 nM),surviving fraction (EVEROLIMUS; 1000 nM),surviving fraction (MK2206; 0.5 nM),surviving fraction (MK2206; 1 nM),surviving fraction (MK2206; 5 nM),surviving fraction (MK2206; 10 nM),surviving fraction (MK2206; 50 nM),surviving fraction (MK2206; 100 nM),surviving fraction (MK2206; 500 nM),surviving fraction (MK2206; 1000 nM)
MDAMB468 BREAST,0.759 ± 0.076,0.669 ± 0.043,0.599 ± 0.031,0.546 ± 0.045,0.55 ± 0.017,0.601 ± 0.0052,0.551 ± 0.044,0.522 ± 0.066,1.07 ± 0.052,1.1 ± 0.076,1.1 ± 0.067,1.09 ± 0.052,0.966 ± 0.06,0.939 ± 0.073,0.666 ± 0.0078,0.595 ± 0.014
CADOES1 SOFT TISSUE,0.842 ± 0.1,0.74 ± 0.072,0.529 ± 0.052,0.472 ± 0.11,0.309 ± 0.036,0.344 ± 0.098,0.259 ± 0.017,0.268 ± 0.04,1.02 ± 0.12,0.925 ± 0.099,0.915 ± 0.097,0.926 ± 0.036,0.828 ± 0.088,0.815 ± 0.092,0.711 ± 0.077,0.591 ± 0.071
HT1080 SOFT TISSUE,1.04 ± 0.029,0.991 ± 0.013,0.733 ± 0.039,0.577 ± 0.045,0.496 ± 0.019,0.48 ± 0.029,0.477 ± 0.036,0.477 ± 0.036,1.04 ± 0.028,1.02 ± 0.018,1.04 ± 0.018,1.06 ± 0.043,1.05 ± 0.026,1.05 ± 0.012,0.997 ± 0.049,0.951 ± 0.044
SKBR3 BREAST,0.615 ± 0.048,0.561 ± 0.009,0.414 ± 0.021,0.389 ± 0.015,0.37 ± 0.03,0.316 ± 0.016,0.312 ± 0.021,0.295 ± 0.018,0.983 ± 0.076,1.01 ± 0.16,0.942 ± 0.085,0.911 ± 0.032,0.724 ± 0.067,0.581 ± 0.028,0.368 ± 0.02,0.337 ± 0.015
H23 LUNG,0.811 ± 0.023,0.724 ± 0.011,0.567 ± 0.049,0.501 ± 0.039,0.488 ± 0.022,0.482 ± 0.034,0.405 ± 0.048,0.433 ± 0.03,0.95 ± 0.072,1.04 ± 0.015,1.017 ± 0.008,1.03 ± 0.053,0.911 ± 0.043,0.883 ± 0.046,0.776 ± 0.067,0.6663 ± 0.0061
SJSA1 BONE,1.58 ± 0.029,1.72 ± 0.099,1.5 ± 0.24,1.63 ± 0.07,1.38 ± 0.023,1.7 ± 0.048,1.38 ± 0.26,1.73 ± 0.11,0.752 ± 0.027,0.825 ± 0.033,0.907 ± 0.028,0.804 ± 0.032,1.66 ± 0.096,1.7 ± 0.048,1.66 ± 0.13,1.71 ± 0.15
22RV1 PROSTATE,0.788 ± 0.065,0.588 ± 0.14,0.452 ± 0.043,0.375 ± 0.031,0.515 ± 0.24,0.374 ± 0.032,0.365 ± 0.061,0.375 ± 0.028,1.04 ± 0.045,0.987 ± 0.09,0.87 ± 0.09,0.921 ± 0.17,0.707 ± 0.12,0.762 ± 0.064,0.554 ± 0.05,0.582 ± 0.0085
HS578T BREAST,0.6 ± 0.095,0.598 ± 0.019,0.527 ± 0.047,0.524 ± 0.042,0.563 ± 0.08,0.545 ± 0.048,0.471 ± 0.044,0.468 ± 0.017,1.06 ± 0.17,1 ± 0.084,1.02 ± 0.087,1.04 ± 0.15,1.03 ± 0.19,0.829 ± 0.08,0.652 ± 0.064,0.618 ± 0.028
HOSMNG BONE,1.03 ± 0.013,0.95 ± 0.051,0.951 ± 0.11,0.979 ± 0.07,1 ± 0.07,1.05 ± 0.1,0.999 ± 0.085,1.03 ± 0.027,0.865 ± 0.1,0.936 ± 0.1,0.907 ± 0.082,0.846 ± 0.1,0.773 ± 0.076,0.802 ± 0.15,0.752 ± 0.064,0.678 ± 0.027
SIHA CERVIX,0.822 ± 0.043,0.741 ± 0.04,0.64 ± 0.02,0.973 ± 0.61,0.605 ± 0.061,0.592 ± 0.049,0.498 ± 0.044,0.499 ± 0.008,0.989 ± 0.041,1 ± 0.043,1.02 ± 0.092,1.04 ± 0.062,0.8803 ± 0.0068,0.876 ± 0.031,0.731 ± 0.013,0.719 ± 0.021
143B BONE,0.954 ± 0.032,0.948 ± 0.022,0.846 ± 0.03,0.824 ± 0.018,0.8355 ± 0.00071,0.825 ± 0.029,0.793 ± 0.057,0.827 ± 0.096,0.912 ± 0.012,0.969 ± 0.042,0.974 ± 0.082,1.1 ± 0.1,0.957 ± 0.024,0.959 ± 0.064,0.96 ± 0.034,0.939 ± 0.033
CASKI CERVIX,0.57 ± 0.035,0.506 ± 0.025,0.473 ± 0.018,0.402 ± 0.029,0.446 ± 0.021,0.389 ± 0.043,0.376 ± 0.0098,0.379 ± 0.014,0.905 ± 0.04,0.97 ± 0.055,0.951 ± 0.065,0.88 ± 0.011,0.736 ± 0.055,0.627 ± 0.039,0.44 ± 0.047,0.36 ± 0.022
DU4475 BREAST,0.429 ± 0.1,0.272 ± 0.054,0.148 ± 0.0015,0.161 ± 0.03,0.108 ± 0.031,0.125 ± 0.03,0.103 ± 0.0061,0.0877 ± 0.012,1.07 ± 0.035,1.08 ± 0.094,0.989 ± 0.11,1 ± 0.015,0.828 ± 0.1,0.784 ± 0.019,0.469 ± 0.047,0.444 ± 0.015
YAMATO SYNOVIAL,1.07 ± 0.084,1.06 ± 0.074,1.06 ± 0.02,0.633 ± 0.022,0.5 ± 0.021,0.454 ± 0.0076,0.401 ± 0.014,0.473 ± 0.03,1.13 ± 0.13,1.12 ± 0.023,1.16 ± 0.1,1.08 ± 0.063,0.84 ± 0.022,0.708 ± 0.036,0.521 ± 0.01,0.482 ± 0.027
A549 LUNG,0.962 ± 0.022,0.927 ± 0.018,0.8767 ± 0.0076,0.842 ± 0.017,0.855 ± 0.041,0.826 ± 0.048,0.777 ± 0.0096,0.759 ± 0.058,1.05 ± 0.023,1.1 ± 0.028,1.06 ± 0.037,1.081 ± 0.0074,1.06 ± 0.017,1.08 ± 0.026,1.06 ± 0.024,1.09 ± 0.042
SUM149 BREAST,0.844 ± 0.035,0.671 ± 0.098,0.536 ± 0.068,0.523 ± 0.079,0.462 ± 0.039,0.411 ± 0.04,0.403 ± 0.023,0.335 ± 0.03,1.04 ± 0.049,1.05 ± 0.038,1.02 ± 0.058,0.997 ± 0.098,0.937 ± 0.036,0.953 ± 0.029,0.932 ± 0.082,0.872 ± 0.055
MCF7 BREAST,0.673 ± 0.049,0.597 ± 0.058,0.502 ± 0.046,0.495 ± 0.024,0.527 ± 0.011,0.505 ± 0.012,0.504 ± 0.021,0.514 ± 0.024,0.947 ± 0.046,0.942 ± 0.052,0.933 ± 0.044,0.916 ± 0.034,0.882 ± 0.065,0.841 ± 0.078,0.659 ± 0.033,0.62 ± 0.042
MDAMB361 BREAST,0.739 ± 0.061,0.815 ± 0.098,0.697 ± 0.0076,0.631 ± 0.049,0.62 ± 0.028,0.584 ± 0.0067,0.547 ± 0.015,0.543 ± 0.039,0.985 ± 0.072,0.922 ± 0.076,0.826 ± 0.1,0.841 ± 0.031,0.768 ± 0.11,0.608 ± 0.019,0.353 ± 0.024,0.34 ± 0.026
SG28 HEADNECK,1.15 ± 0.028,1.09 ± 0.026,0.879 ± 0.063,0.8505 ± 0.005,0.809 ± 0.026,0.767 ± 0.0028,0.68 ± 0.0028,0.775 ± 0.0028,1 ± 0.1,1.16 ± 0.013,1.02 ± 0.14,1.05 ± 0.12,0.864 ± 0.061,0.852 ± 0.1,0.634 ± 0.0078,0.719 ± 0.059
SCC47 HEADNECK,1.02 ± 0.053,1 ± 0.017,1.01 ± 0.053,0.95 ± 0.024,0.961 ± 0.053,0.961 ± 0.043,0.937 ± 0.16,0.843 ± 0.032,1.03 ± 0.051,1.06 ± 0.047,1.14 ± 0.065,1.16 ± 0.046,1.04 ± 0.046,1.07 ± 0.052,0.935 ± 0.091,0.828 ± 0.045
